Experimental data as given in patent US9487559B2, “Compositions comprising multivalent synthetic ligands of surface nucleolin and glycosaminoglycans” (ELRO PHARMA SARL, priority 2010, dated 2016).
“Also recorded” adds a separate entry of the source.

Assays:
PANC1 cells = assay: PANC1 proliferation, gemcitabine alone or combined with N6L, Cs-C or nanoparticles, MTT assay; format: cell-based, human; details: gemcitabine 1 nM to 50 nM, every day for 4 days, 5% FBS
Method: FIG. 22. Nanoparticles, but not N6L, induce the activity of gemcitabine. Similar number of PANC1 cells was treated with increasing concentrations of gemcitabine alone or in combination with N6L, Cs-C, or nanoparticles composed by Cs-C.

[1] = system: U87-MG (Human glioblastoma-astrocytoma) cells; assay: Anchorage-dependent proliferation of U87-MG cells, MTT assay; format: cell-based; details: whatever the concentration used (0.1-1000 μg/ml)
[2] = system: PANC-1 (Human pancreatic carcinoma) cells; assay: Anchorage-dependent proliferation of PANC-1 cells, MTT assay; format: cell-based; details: whatever the concentration used (0.1-1000 μg/ml)
[3] = system: chicken embryo chorioallantoic membrane; assay: In vivo angiogenesis, chicken embryo chorioallantoic membrane (CAM) assay; details: heparin or CS-C applied alone on the CAM, 48 h
Method: FIG. 21. […] An 1 cm2 area of chicken embryo CAM, restricted by a silicon ring, was incubated with 20 μM N6L or nanoparticles composed by 20 μM N6L and […] heparin or Cs-C. 48 h later, total vessels length was quantified. We observed that N6L had no effect on the in vivo angiogenesis, in contrast to the heparin or Cs-C composed nanoparticles that inhibited the development of new blood vessels (50% and 70%, respectively). Results are mean values±SD from at least 3 independent experiments.
To analyse the effects of N6L pre-incubated with sulfated glycoaminoglycans on in vivo angiogenesis using chicken embryo chorioallantoic membrane assay.
Leghorn fertilized eggs were incubated for 4 days at 37° C. A window was then opened on the eggshell, exposing the CAM. The window was covered with sterile tape, and the eggs were returned to the incubator. On day 9 of embryo development, […] of distilled water as a control or containing either 20 μM N6L, […] or 10 μg/ml CS-C alone or 20 μM N6L pre-incubated with either 10 μg/ml heparin or 10 μg/ml CS-C inside a silicone ring to restricted the area which is 1 cm^2. […] Photographs were taken and the total length of the vessels was quantified using PC image-analysis software (Scion Corporation, USA). […]

Compound: Nc1ccn([C@@H]2O[C@H](CO)[C@@H](O)C2(F)F)c(=O)n1 [gemcitabine]
- inhibition of PANC1 proliferation by gemcitabine alone (PANC1 cells): slight inhibition; also recorded: slightly inhibited

Compound: chondroitin-6-sulfate [Cs-C]
- effect of GAG alone on U87-MG proliferation [1]: no effect
- effect of GAG alone on PANC-1 proliferation [2]: no effect
- effect of GAG alone on in vivo angiogenesis [3]: no effect

Compound: heparin
- effect of GAG alone on U87-MG proliferation [1]: no effect
- effect of GAG alone on PANC-1 proliferation [2]: no effect
- effect of GAG alone on in vivo angiogenesis [3]: no effect
